Measured values as given in patent publication US20230382888A1, “HDAC INHIBITOR SOLID STATE FORMS” (Viracta Subsidiary, Inc., priority 2020, published 2023).
“Also recorded” adds a separate entry of the source.

Experiments:
Assay type in all cases: physicochemical
[1] = Gravimetric vapour sorption (GVS)
Method: Sorption isotherms were obtained using a SMS DVS Intrinsic moisture sorption analyser, controlled by DVS Intrinsic Control software. The sample temperature was maintained at 25° C. by the instrument controls. The humidity was controlled by mixing streams of dry and wet nitrogen, with a total flow rate of 200 ml/min. The relative humidity was measured by a calibrated Rotronic probe (dynamic range of 1.0 — 100% RH), located near the sample. The weight change, (mass relaxation) of the sample as a function of % RH was constantly monitored by a microbalance (accuracy ±0.005 mg). Typically, 20-30 mg of sample was placed in a tared mesh stainless steel basket under ambient conditions. The sample was loaded and unloaded at 40% RH and 25° C. (typical room conditions). A moisture sorption isotherm was performed as outlined below (2 scans per complete cycle). The standard isotherm was performed at 25° C. at 10% RH intervals over a 0-90% RH range. Typically, a double cycle (4 scans) was carried out. Data analysis was carried out within Microsoft Excel using the DVS Analysis Suite. [table]

[2] = Thermodynamic aqueous solubility; conditions: for pH of saturated solution: water, after 24 hours equilibration at 25° C.
Method: Aqueous solubility was determined by suspending sufficient compound in 0.5 ml deionized water to give a maximum final concentration of 40 mg/ml of the parent free-form of the compound. The suspension was equilibrated at 25° C., on a Heidolph plate shaker set to 750 rpm for 24 hours. After equilibration, the appearance was noted and the pH of the saturated solution was measured. Samples forming suspensions were centrifuged for 4 min at 13,500 rpm. Samples were then filtered through a glass fiber C filter (particle retention 1.2 μm), before dilution with H2 O as appropriate. Quantitation was by HPLC (see Table 2 for parameters) with reference to a standard solution of approximately 0.15 mg/ml in DMSO. Different volumes of the standard, diluted and undiluted sample solutions were injected. The solubility was calculated using the peak areas determined by integration of the peak found at the same retention time as the principal peak in the standard injection. Analysis was performed on an Agilent HP1100/Infinity II 1260 series system equipped with a diode array detector and using OpenLAB software.

[3] = Static storage stability at elevated temperature/humidity (XRPD, HPLC)
[4] = Competitive slurries in different water activity (thermodynamic stability)
Method: Competitive slurries of the anhydrous and hydrated forms in different water activity at 50° C. and 5° C. were used to determine the thermodynamic stability relationships.

[5] = Intrinsic dissolution rate (IDR) in FaSSGF

Reversible water uptake by GVS ([1]; 0-90% RH, 25° C.): 0.35% reversible uptake from 0-90%
Hygroscopicity by GVS ([1]; 25° C.): Slightly hygroscopic
solubility at 24 h ([2]; thermodynamic from solid, deionized water, 25° C., 24 hours, maximum final concentration 40 mg/ml of parent free-form): 40 mg/mL
pH of saturated solution [2]: (pH = 3.2)
pH of saturated solution ([2]; listed as mesylate): ~3.2
HPLC purity after static storage ([3]; 25° C./97% RH, 1 week): no significant drop in purity
HPLC purity after static storage ([3]; 25° C./97% RH, 14 weeks): 93.5%
Solid form by XRPD after static storage ([3]; 25° C./97% RH, 14 weeks): Mesylate Form 1
HPLC purity after static storage ([3]; 40° C./75% RH, 1 week): no significant drop in purity
HPLC purity after static storage ([3]; 40° C./75% RH, 14 weeks): Form 2 (94.7% purity)
Solid form by XRPD after static storage ([3]; 40° C./75% RH, 14 weeks): Mixture of Mesylate Form 1 and Mesylate
Water activity (aw) up to which the form is the most stable ([4]; competitive slurries at 50° C.): 0.6
Water activity (aw) up to which the form is the most stable ([4]; competitive slurries at ° C. (so in the source)): ≥ 0.3
IDR relative to free base form A ([5]; FaSSGF): ~8 times
IDR in FaSSGF ([5]; Fasted State Simulated Gastric Fluid): 9.1 mg/min/cm^2
SMILES: O=C(NO)c1cnc(N2C[C@@H]3[C@H](C2)[C@H]3NCc2ccc3cc(F)ccc3n2)nc1 [Mesylate Form 1, N-hydroxy 2-{6-[(6-fluoro-quinolin-2-ylmethyl)-amino]-3-aza-bicyclo[3.1.0]hex-3-yl}pyrimidine-5-carboxamide]
XRPD post-GVS (solid form) ([1]; residue after GVS): no change; also recorded: XRPD remains unchanged
Solid form by XRPD after static storage ([3]; 25° C./97% RH, 7 days (1 week)): unchanged; also recorded: No change, Mesylate Form 1
Solid form by XRPD after static storage ([3]; 40° C./75% RH, 7 days (1 week)): unchanged; also recorded: No change, Mesylate Form 1
